One assay concerns S. aureus 340. Description: MIC, broth microdilution. As to conditions: for MIC: Staphylococcus aureus, 340, 24 h; for MIC S. aureus 340: 24 h. It is filed as cell-based, Staphylococcus aureus. The protocol: (§1) Antimicrobial activity of the compounds was studied by determination of minimal inhibitory concentrations (MIC) according to the NCCLS guidelines M7-A2 using the microbroth dilution methods. The bacteria strains were grown on trypticase soy agar (Becton Dickinson) at 37 °C for 24 h. Inocula were prepared in TCE (tryptone 0.1%, […], wt/vol) by ajusting the turbidity at 623 nm to obtain 1–3 10^5 CFU/mL.
(§2) Antimicrobial activities of the compounds were determined by using a broth microdilution method performed in sterile 96-well microplates. All compounds were solubilized in water at a concentration of 10 mM and were transferred to each microplate well in order to obtain a two-fold serial dilution in 100 µL of broth and 100 µL of inoculum containing 2–6 10^5 CFU of each bacterium were added to each well. Some wells were reserved for positive controls and inoculum viability.
(In general: Broth dilution looks for growth in wells or tubes with falling amounts of substance.)

The subject of another assay is P. aeruginosa 1051575. Description: MIC, broth microdilution. As to conditions: for MIC: Pseudomonas aeruginosa, 1051575, 24 h; for MIC / MIC P. aeruginosa 1051575: 24 h. It is filed as cell-based, Pseudomonas aeruginosa. As for the experimental part:
as §1, §2

Assay [1] concerns Chinese hamster Ovary cells (CHO-K1). Description: Cytotoxicity assay (WST-1 / Neutral Red). As to conditions: 24-h incubation; for IC50: Cricetulus griseus, 24 h. The format is cell-based. The protocol: The cytotoxic activities of compounds were assessed on Chinese hamster Ovary cells (CHO-K1) provided from ATCC-LGC Standards Sarl (Molsheim, France). Cells were maintained in Mc Coy’s 5A (CHO) medium supplemented with 10% bovine calf serum, 2 mM glutamine, and 100 U mL^−1/10 µg mL^−1 penicillin/streptomycin mixtures. For the cytotoxicity experiments, they were seeded in 96-well plates and incubated at 37 °C in humidified atmosphere containing 5% CO2 overnight, then concentrations of compounds were incorporated in triplicate cultures. After a 24-h incubation period at 37 °C, cells were submitted to three successive washes in phosphate buffer saline (PBS) and cell viability was evaluated by two different vital dyes: • i. A first set of cell cultures was incubated in PBS containing 10% WST-1 for 30 min at 37 °C, 5% CO2. Cell viability was evaluated by the assessment of WST-1 absorbance at 450 nm in a microplate spectrophotometer. • ii. A second set of cell cultures was placed into Neutral Red medium (50 μg mL^−1 Neutral Red in complete medium) and incubated for 3 h at 37 °C, 5% CO2. Then the Neutral Red medium was removed and the distaining solution (50% ethanol, 1% acetic acid, 49% distilled water; 50 µL per well) was added into the wells. The plates were shaken for 15–20 min at room temperature in the dark. Cell viability was evaluated by the assessment of absorbance at 540 nm in a microplate spectrophotometer.
Results were expressed as percentages of cell viability about the control (culture medium-only), which corresponded to 100% cell viability. Dose-response curves were calculated by non-linear regression analysis with TableCurve 2D software (V 5.0.1) (Systat Software Inc., San Jose, CA, USA). The Inhibitory Concentration 50% (IC50) was defined as the concentration of compounds that induced a 50% decrease of viable cells.

The next assay deals with S. aureus ATCC 25923. Description: MIC, broth microdilution. It is filed as cell-based, Staphylococcus aureus. The following applies: Staphylococcus aureus, ATCC25923, 24 h, ATCC strain. As for the experimental part: as §1, §2
The test system of a further assay is P. aeruginosa ATCC 27853. Description: MIC, broth microdilution. It is filed as cell-based, Pseudomonas aeruginosa. The following applies: ATCC strain; for MIC: Pseudomonas aeruginosa, ATCC27853, 24 h. As for the experimental part: as §1, §2
Another assay deals with S. intermedius 1051997. Description: MIC, broth microdilution. The format is cell-based, Staphylococcus intermedius. The following applies: for MIC: Staphylococcus intermedius, 1051997, 24 h, 24 h; for Therapeutic Ratio (TR): IC50 (CHO)/MIC, S. intermedius. The protocol:
as §1, §2

Another assay relates to E. faecalis ATCC29212. Description: MIC, broth microdilution. The following applies: Enterococcus faecalis, ATCC29212, 24 h, ATCC strain, read-out: MIC E. faecalis 29212. The format is cell-based, Enterococccus faecalis. As for the experimental part: as §1, §2
In a further assay the test system is E. coli ATCC 25922. Description: MIC, broth microdilution. The following applies: ATCC strain; for MIC: Escherichia coli, ATCC25922, 24 h; for MIC E. coli 25922: 24 h. The format is cell-based, Escherichia coli. The protocol: as §1, §2
The subject of the next assay is E. coli 1956. Description: MIC, broth microdilution. The format is cell-based, Escherichia coli. As to conditions: for MIC: Escherichia coli, 1956, 24 h. The protocol: as §1, §2

Consider twelve compounds from PMC12693182, “Synthesis and QSAR Studies of Claramine Derivatives, a New Class of Broad-Spectrum Antimicrobial Agents” (Molecules, 2025).

Converted amounts (≈) assume the structure as drawn.

Take `CC(C)OC(=O)CCC(C)C1CCC2C3C(O)CC4CC(NCCCN5CCN(CCCN)CC5)CCC4(C)C3CC(O)C12C` (centres unmarked) [Claramine B16]: the minimum inhibitory concentration (MIC) against S. aureus 340 and with P. aeruginosa 1051575 was 16 µg/mL (≈ 25.3 µM) throughout. The compound also gave an IC50 in assay [1] of 260 µg/mL (≈ 411 µM).

On to `CC(C)OC(=O)CCC(C)C1CCC2C3C(O)CC4CC(NCCN(CCN)CCN)CCC4(C)C3CC(O)C12C` (centres unmarked) [Claramine B19], for which the MIC in the assay with S. aureus 340 was 14 µg/mL (≈ 24.2 µM); against P. aeruginosa 1051575 it was 58 µg/mL (≈ 100 µM). In addition, inhibition in [1] was half-maximal at 81 µg/mL (≈ 140 µM) (IC50).

Regarding `COC(=O)CCC(C)C1CCC2C3C(O)CC4CC(NCCCNCCCCNCCCN)CCC4(C)C3CCC12C` (centres unmarked) [Claramine C01], the MIC came out at 4 µg/mL (≈ 6.77 µM) against S. aureus 340; 4 µg/mL (≈ 6.77 µM) in the assay on S. aureus ATCC 25923; 30 µg/mL (≈ 50.8 µM) in the assay on P. aeruginosa ATCC 27853; 7 µg/mL (≈ 11.8 µM) in the assay on P. aeruginosa 1051575; 2 µg/mL (≈ 3.38 µM) with S. intermedius 1051997; 15 µg/mL (≈ 25.4 µM) in the assay on E. faecalis ATCC29212. Further, the values for the MIC against E. coli ATCC 25922 and with E. coli 1956 were 30 µg/mL (≈ 50.8 µM) and 60 µg/mL (≈ 102 µM), respectively. The compound further yielded an IC50 in assay [1] of 24 µg/mL (≈ 40.6 µM).

For `COC(=O)CCC(C)C1CCC2C3C(O)CC4CC(NCCCNCCCNCCCN)CCC4(C)C3CCC12C` (centres unmarked) [Claramine C02], the MIC turned out to be 4 µg/mL (≈ 6.93 µM) against S. aureus 340; 4 µg/mL (≈ 6.93 µM) in the assay on S. aureus ATCC 25923; 29 µg/mL (≈ 50.3 µM) against P. aeruginosa ATCC 27853; 7 µg/mL (≈ 12.1 µM) in the assay with P. aeruginosa 1051575; 2 µg/mL (≈ 3.47 µM) against S. intermedius 1051997; 15 µg/mL (≈ 26 µM) in the assay with E. faecalis ATCC29212. In assay [1], it took 22 µg/mL (≈ 38.1 µM) to reach half-maximal inhibition (IC50). Moreover, in the assay on E. coli ATCC 25922, the “MIC E. coli 25922” value is recorded as 15 µg/mL (≈ 26 µM).

On to `COC(=O)CCC(C)C1CCC2C3C(O)CC4CC(NCCCNCCCN)CCC4(C)C3CCC12C` (centres unmarked) [Claramine C04], for which the MIC against S. aureus 340 turned out to be 7 µg/mL (≈ 13.5 µM); in the assay on P. aeruginosa 1051575 it was 26 µg/mL (≈ 50 µM). In assay [1], this compound came in with an IC50 of 68 µg/mL (≈ 131 µM).

As for `CC(C)OC(=O)CCC(C)C1CCC2C3C(O)CC4CC(NCCCNCCCNCCCN)CCC4(C)C3CCC12C` (centres unmarked) [Claramine C17], the MIC amounted to 2 µg/mL (≈ 3.31 µM) in the assay on S. aureus 340; 4 µg/mL (≈ 6.61 µM) against S. aureus ATCC 25923; 16 µg/mL (≈ 26.4 µM) against P. aeruginosa ATCC 27853; 0.8 µg/mL (≈ 1.32 µM) in the assay on S. intermedius 1051997; 8 µg/mL (≈ 13.2 µM) with E. faecalis ATCC29212; 16 µg/mL (≈ 26.4 µM) with E. coli ATCC 25922. Besides, in the assay on E. coli 1956, the minimal inhibitory concentration (MIC) is 10 µg/mL (≈ 16.5 µM). The “Therapeutic Ratio (TR)” value in the assay with P. aeruginosa 1051575 (IC50 (CHO)/MIC, P. aeruginosa) is listed as over 10; in the assay with S. intermedius 1051997, 65–114. Further, the “IC50 CHO” value in assay [1] stood at 85 µg/mL (≈ 141 µM). This compound yielded an IC50 in [1] of over 60 µg/mL.

With `CC(C)OC(=O)CCC(C)C1CCC2C3C(O)CC4CC(NCCCNCCCN)CCC4(C)C3CCC12C` (centres unmarked) [Claramine C19], the “MIC S. aureus 340” value with S. aureus 340 was determined as 2 µg/mL (≈ 3.65 µM). Besides, the MIC against S. aureus ATCC 25923 amounted to 7 µg/mL (≈ 12.8 µM); against P. aeruginosa ATCC 27853 it was 28 µg/mL (≈ 51.1 µM); against S. intermedius 1051997, 2 µg/mL (≈ 3.65 µM); with E. faecalis ATCC29212 it was 4 µg/mL (≈ 7.3 µM); in the assay with E. coli ATCC 25922, 14 µg/mL (≈ 25.6 µM); against E. coli 1956 it was 14 µg/mL (≈ 25.6 µM). For the same compound, in the assay with P. aeruginosa 1051575, the “MIC P. aeruginosa 1051575” value was found to be 14 µg/mL (≈ 25.6 µM). The “Therapeutic Ratio (TR)” value with S. intermedius 1051997 is 65–114.

With `CC(C)OC(=O)CCC(C)C1CCC2C3C(O)CC4CC(NCCCN5CCN(CCCN)CC5)CCC4(C)C3CCC12C` (centres unmarked) [Claramine C24], the “MIC S. aureus 340” value with S. aureus 340 was 8 µg/mL (≈ 13 µM). Further, the MIC was 8 µg/mL (≈ 13 µM) in the assay with S. aureus ATCC 25923; 30 µg/mL (≈ 48.6 µM) against P. aeruginosa ATCC 27853; 4 µg/mL (≈ 6.48 µM) in the assay with S. intermedius 1051997; 15 µg/mL (≈ 24.3 µM) in the assay with E. faecalis ATCC29212; 15 µg/mL (≈ 24.3 µM) in the assay with E. coli ATCC 25922; 30 µg/mL (≈ 48.6 µM) against E. coli 1956. Moreover, the “MIC P. aeruginosa 1051575” value in the assay on P. aeruginosa 1051575 amounted to 30 µg/mL (≈ 48.6 µM).

Take `CC(C)OC(=O)CCC(C)C1CCC2C3C(O)CC4CC(NCCN(CCN)CCN)CCC4(C)C3CCC12C` (centres unmarked) [Claramine C25]: the minimal inhibitory concentration (MIC) in the assay on S. aureus 340 was 14 µg/mL (≈ 24.9 µM); with P. aeruginosa 1051575 it was 28 µg/mL (≈ 49.7 µM). This compound also came in with an IC50 in assay [1] of 141 µg/mL (≈ 250 µM).

Regarding `CC(C)OC(=O)CCC(C)C1CCC2C3CCC4CC(NCCCNCCCN)CCC4(C)C3CCC12C` (centres unmarked) [Claramine E04], the minimum inhibitory concentration (MIC) in the assay with S. aureus 340 and in the assay with P. aeruginosa 1051575 was 3 µg/mL (≈ 5.64 µM) in each case. In assay [1], this compound had an IC50 of 13 µg/mL (≈ 24.4 µM).

As for `CC[C@H]1OC(=O)[C@H](C)[C@@H](O[C@H]2C[C@@](C)(OC)[C@@H](O)[C@H](C)O2)[C@H](C)[C@@H](O[C@@H]2O[C@H](C)C[C@H](N(C)C)[C@H]2O)[C@](C)(O)C[C@@H](C)C(=O)[C@H](C)[C@@H](O)[C@]1(C)O` [Ery, Erythromycine, reference compound], the MIC against S. aureus 340, in the assay on S. aureus ATCC 25923, with S. intermedius 1051997 and in the assay with E. faecalis ATCC29212 was 1 µg/mL (≈ 1.36 µM) throughout.

For the compound Colistine [reference compound], in the assay with P. aeruginosa ATCC 27853 (24 h), the “MIC P. aeruginosa 27853” value is 0.5 µg/mL. In the assay with P. aeruginosa 1051575, the “MIC P. aeruginosa 1051575” value was 0.5 µg/mL. In addition, the “MIC E. coli 25922” value in the assay with E. coli ATCC 25922 is on record as 0.5 µg/mL. In addition, in the assay on E. coli 1956 (24 h), the “MIC E. coli 1956” value is 0.5 µg/mL.

For orientation: MIC means the least concentration at which growth counts as inhibited. Usually IC50 stands for the concentration at which inhibition is half-maximal. A low value points to higher potency.
